From patent publication US10179120B2, “Dosage regimen of ferric trimaltol” (Iron Therapeutics Holdings AG, priority 2014, dated 2019)

Tests used:
Format in all cases: in vivo, human
[1] = Example 1: 12-week placebo-controlled study of ST10 30 mg twice daily in IDA patients with IBD
Experimental: 128 patients suffering from IDA were randomised. Of this group […] were suffering from Crohn's disease and 53 were suffering from ulcerative colitis. All had mild to moderate disease activity and anaemia associated with IBD which was measured according to low haemoglobin levels ([…] for women and 13 g/dL (male) and were intolerant of ferrous iron, or it could not be used. There were no restrictions on the use of gastric pH modifying agents or medications.
60 patients were treated with ST10 at a 30 mg dose twice daily, before breakfast and prior to sleep on an empty stomach for a period of 12 weeks.
60 patients received a matched placebo capsule and were treated in the same way for the same period. Withdrawal from the study before 12 weeks occurred in seven ST10 subjects and nine placebo subjects. 87% of subjects completed 12 weeks of treatment.

[2] = Example 1: treatment with 30 mg ST10 twice daily for up to 64 weeks; settings: 30 mg twice daily for up to 64 weeks, 109 subjects
Experimental: 109 of the 128 subjects were treated with 30 mg ST10 twice daily for up to 64 weeks.

[3] = Example 2: open-label, randomised, single and repeat dose Phase I pharmacokinetic study in subjects with iron deficiency; settings: for reticulocyte haemoglobin, Mean change: baseline to day 8; for Transferrin saturation above baseline / mean serum total iron concentration above baseline: 6 h postdose
Experimental: These studies were primarily pharmacokinetic and conducted in subjects with iron deficiency having active inflammatory disease or acute chronic inflammation. An open-label, randomised, single and repeat dose parallel group Phase I pharmacokinetic study was carried out to evaluate the effect of single and repeated twice daily (bid) oral doses of ST10 at 30 mg, 60 mg and 90 mg for 8 days.
24 subjects with iron deficiency (with or without anaemia) were randomly allocated to one of the three ST10 dose groups as follows:
Group 1: 9 subjects received ST10, 30 mg twice daily for 7 days (days 1-7) plus a final 30 mg dose on the morning of day 8.
Group 2: 8 subjects received ST10, 60 mg twice daily for 7 days (days 1-7) plus a final 60 mg dose on the morning of day 8.
Group 3: 7 subjects received ST10, 90 mg twice daily for 7 days (days 1-7) plus a final 90 mg dose on the morning of day 8.
On day 1, following fasting for at least 1.5-2 hours beforehand, ST10 was administered (30 mg, 60 mg or 90 mg) and blood samples collected over the following 6 h for analysis. 60 mg was administered as two 30 mg capsules and 90 mg was administered as three 30 mg capsules, both as a single dose. Subjects continued dosing with ST10 on the evening of day 1 then every morning and evening for the next 6 days (Days 2 to 7).
On day 8 following fasting for at least 1.5-2 hours beforehand the last dosing of ST10 was administered (30 mg, 60 mg or 90 mg) and blood samples collected over the following 6 h for analysis.
On Days 1 and 8 blood samples were collected predose (0 h=time of ST10 dose) and at 5 minutes (for NTBI only), 15 minutes, 30 minutes, 45 minutes, and 1, 1.5, 2, 3, 4 and 6 h postdose.
Serum concentrations of transferrin, total iron binding capacity (TIBC), ferritin and soluble transferrin receptor; and reticulocyte haemoglobin concentrations (CHr) in whole blood were measured by central laboratories using appropriately validated methods.
These studies used transferrin saturation and total serum iron as measurements of iron uptake from the gut into the transport mechanisms. In addition serum ferritin was used as a measure of iron storage status at the end of the dosing period; all of these measurements are standard and well recognised.
One subject in the 60 mg dose group prematurely withdrew from the study on Day 7, so full profiles of all serum iron parameters were available in the 30 mg dose group for 9 subjects (days 1 and 8), in the 60 mg dose group 8 subjects on day 1 and for 7 subjects on day 8, and in the 90 mg dose group for 7 subjects (days 1 and 8).

ferric trimaltol [ST10]
improvement of haemoglobin levels ([1]; 30 mg twice daily, 8 weeks, p<0.0001): 1.75 g/dL | subjects with adverse events (mainly gastrointestinal) ([1]; 30 mg twice daily, 12 weeks): 38% | subjects with normalised haemoglobin levels ([1]; 30 mg twice daily, by week 12): More than 65% | tolerability ([1]; 30 mg twice daily, duration of the treatment): well tolerated | Mean Hb increase from baseline to Week 12 ([1]; 30 mg twice daily, empty stomach, 12 weeks): 2.26 g/dL | improvement of haemoglobin levels ([1]; 30 mg twice daily, week 4, p<0.0001): 1.05 g/dL | mean Hb at Week 12 ([1]; 30 mg twice daily, week 12): 13.20 g/dL | mean improvement in Hb, change from baseline compared to placebo ([1]; 30 mg twice daily, week 12, p<0.0001): 2.25 g/dL | mean Hb at baseline ([1]; ST10-treated subjects, baseline): 11.10 g/dL | blackened stools ([1]; patients in the study of Example 1): did not report blackened stools | subjects with adverse reactions [2]: 23% | reticulocyte haemoglobin, Baseline ([3]; 30 mg bid): 33.6 | reticulocyte haemoglobin, Mean change ([3]; 30 mg bid): 0.9 | reticulocyte haemoglobin, Day 8 ([3]; 30 mg bid): 34.6 | reticulocyte haemoglobin, Baseline ([3]; 60 mg bid): 31.0 | reticulocyte haemoglobin, Mean change ([3]; 60 mg bid): 3.3 | reticulocyte haemoglobin, Day 8 ([3]; 60 mg bid): 34.1 | reticulocyte haemoglobin, Baseline ([3]; 90 mg bid): 30.8 | reticulocyte haemoglobin, Mean change ([3]; 90 mg bid): 3.0 | reticulocyte haemoglobin, Day 8 ([3]; 90 mg bid): 33.9 | Transferrin saturation above baseline ([3]; Day 1, 30 mg dose group): 17.0% | mean serum total iron concentration above baseline ([3]; Day 1, 30 mg dose group): 11.8 µmol/L | Transferrin saturation above baseline ([3]; Day 1, 60 mg dose group): 47.3% | mean serum total iron concentration above baseline ([3]; Day 1, 60 mg dose group): 33.0 µmol/L | Transferrin saturation above baseline ([3]; Day 1, 90 mg dose group): 33.3% | mean serum total iron concentration above baseline ([3]; Day 1, 90 mg dose group): 24.3 µmol/L | Transferrin saturation, average maximum value ([3]; Day 1, 30 mg dose group): 45.6% | serum total iron concentration, average maximum ([3]; Day 1, 30 mg dose group): 32.3 µmol/L | Transferrin saturation, average maximum value ([3]; Day 1, 60 mg dose group): 69.8% | serum total iron concentration, average maximum ([3]; Day 1, 60 mg dose group): 49.1 µmol/L | Transferrin saturation, average maximum value ([3]; Day 1, 90 mg dose group): 67.3% | serum total iron concentration, average maximum ([3]; Day 1, 90 mg dose group): 48.7 µmol/L | Mean serum ferritin ([3]; day 1, 30 mg dose group): around 15 μg/L | Mean serum ferritin ([3]; day 1, 60 mg dose group): ~10 µg/L | Mean serum ferritin ([3]; day 1, 90 mg dose group): ~13 µg/L | Mean serum ferritin ([3]; day 8, 30 mg dose group): ~22 µg/L | Mean serum ferritin ([3]; day 8, 60 mg dose group): ~22 µg/L | Mean serum ferritin ([3]; day 8, 90 mg dose group): ~32 µg/L | tolerability ([3]; doses of 30 mg and above): well tolerated
